Experimental data reported in patent US12622962B2 (priority 2019, dated 2026).

Experiments:
[1] = tested on: HBsAg antigen-specific IFN-γ; design: species or system C57BL/6(N) mice; settings: mouse, in vivo
[2] = tested on: HBcAg antigen-specific IFN-γ; design: species or system C57BL/6(N) mice; settings: mouse, in vivo

## QS-21 [QS21]
[1]
  induced production level of HBsAg-specific IFN-γ, CpG T1 with different saponins: best effect
[2]
  induced production level of HBcAg-specific IFN-γ, CpG T1 with different saponins: best effect
